“Also recorded” adds a separate entry of the source. Like-named read-outs stand apart in the source and are kept apart here. Marks after values point to notes of the source that are not given here.
What was measured:
[1] = test system: MES-induced seizures; experiment: Maximal Electroshock Test (MES), Test 1, mice i.p.; format: in vivo; settings: for minimal effective dose: Mus musculus, ip; for minimal effective dose / MES 0.5 h / MES 4.0 h: symbol = dose with activity; for activity in MES model (in words): Test 1, mice i.p.; for MES, at 2 hours after dosing: 2 h (footnote h; printed in 4.0 h column)
[2] = test system: convulsant metrazol; experiment: Subcutaneous Metrazol Seizure Threshold Test (scMET), Test 1, mice i.p.; format: in vivo; settings: for minimal effective dose: Mus musculus, ip; for minimal effective dose / ScMET 0.5 h / ScMET 4.0 h: symbol = dose with activity; for ScMET (number of animal protected/number of animal tested) / ScMET 0.5 h / ScMET 4.0 h: mice, i.p.; for ScMET (number of animal protected/number of animal tested): 300 mg/kg (+)
[3] = test system: mice; settings: for Rotorod Toxicity 4.0 h / Rotorod Toxicity (number of animals exhibiting toxicity/number of animals tested) / Rotorod Toxicity 0.5 h: mice, i.p.; for Rotorod Toxicity 4.0 h / Rotorod Toxicity 0.5 h: symbol = dose with toxicity; for Rotorod Toxicity (number of animals exhibiting toxicity/number of animals tested) / Rotorod Toxicity 0.5 h: 0.5 h; for toxicity (in words): Test 1, mice i.p.
[4] = test system: rats; experiment: Neurotoxicity, rats p.o. (Test 2 and Test 3); settings: Test 2, rats p.o.
Text: Acute Toxicity—Minimal Motor Impairment (MMI): To assess a compound's undesirable side effects (toxicity), animals were monitored for overt signs of impaired neurological or muscular function.
Groups of at least 8 rats received various doses of the candidate compound until at least two points were established between the limits of 100 percent protection or toxicity and zero percent protection or minimal toxicity. The 95 percent confidence limits, slopes of the regression lines and standard errors of the slopes were calculated for each quantitative determination. Rats received test compounds orally.
This secondary evaluation determines the time to peak effect (TPE), neurotoxicity, median effective dose (ED50) and biological response.

[5] = test system: MES-induced seizures; experiment: animal or person; format: in vivo, rats; settings: Test 2, rats p.o., 150 mg/kg
[6] = 0.5 h, read-out: MES 0.5 h, mice, i.p., 0.5 h
[7] = 4 h, read-out: MES 4.0 h, mice, i.p., 4.0 h
[8] = 0.5 h, read-out: ScMET 0.5 h, mice, i.p., 0.5 h
[9] = 4 h, read-out: ScMET 4.0 h, mice, i.p., 4.0 h
[10] = mice, i.p., 0.5 h, 300 mg/kg (+)
[11] = mice, i.p., 4.0 h, 300 mg/kg (+)

Structure (SMILES) | minimal effective dose [1, 6] | minimal effective dose [1, 7] | minimal effective dose [2, 8] | minimal effective dose [2, 9] | Rotorod Toxicity 4.0 h [3] | MES (number of animal protected/number of animal tested) [1, 10] | ScMET (number of animal protected/number of animal tested) ([2]; 0.5 h) | Rotorod Toxicity (number of animals exhibiting toxicity/number of animals tested) ([3]; 300 mg/kg (+)) | Rotorod Toxicity 0.5 h [3] | MES (number of animal protected/number of animal tested) [1, 11] | activity in MES model (in words) [1] | ScMET 0.5 h ([2]; 0.5 h) | toxicity (in words) [3] | Toxicity (number of animals exhibiting toxicity/number of animals tested) ([4]; 30 mg/kg, 1.00 h) | Toxicity (number of animals exhibiting toxicity/number of animals tested) ([4]; 30 mg/kg, 2.00 h) | Toxicity (number of animals exhibiting toxicity/number of animals tested) ([4]; 30 mg/kg, 4.00 h) | further results
CCOC(=O)CC1(CNC(=O)OCCSSCCO[N+](=O)[O-])CCCCC1 [I-A1-NOPD1] | < 300 mg/kg | > 300 mg/kg | > 300 mg/kg | > 300 mg/kg | — (— = no activity or no toxicity at 300 mg/kg) | – | – | – | – | – | – | – | – | – | – | – | MES, at 0.25 hours after dosing ([1]; mice, i.p., 0.25 h (footnote k; printed in 0.5 h column)): ++ (++ = activity or toxicity at 100 mg/kg)
CCOC(=O)CC1(CNC(=O)OCCSSCCOC(=O)NC(CO)C(=O)OC)CCCCC1 (stereo not shown) [I-A1-PD6] | < 300 mg/kg | > 300 mg/kg | < 300 mg/kg | > 300 mg/kg | — (— = no activity or no toxicity at 300 mg/kg) | (1/1) | (1/1) | (4/4)^i | + (+ = activity or toxicity at 300 mg/kg) | – | – | – | – | – | – | – | –
CCOC(=O)CC1(CNC(=O)OCCSSCCOC(=O)NC(CCC(=O)OC)C(=O)OC)CCCCC1 (stereo not shown) [I-A1-PD7] | < 300 mg/kg | > 300 mg/kg | < 300 mg/kg | > 300 mg/kg | — (— = no activity or no toxicity at 300 mg/kg) | (1/1) | (1/1)^e | (2/4)^d | + (+ = activity or toxicity at 300 mg/kg) | – | – | – | – | – | – | – | –
CCOC(=O)CC1(CNC(=O)OCCSSCCO)CCCCC1 [I-A1-PD8] | – | > 300 mg/kg | > 300 mg/kg | > 300 mg/kg | — (— = no activity or no toxicity at 300 mg/kg) | (1/1) | (1/1) | (4/4)^f | – | (1/1) | – | – | – | – | – | – | MES (number of animal protected/number of animal tested) ([1]; mice, i.p., 0.5 h, 100 mg/kg (++)): (2/3)
CCOC(=O)CC1(CNC(=O)OCCSSCCOC(=O)NCCN(C)C)CCCCC1 [I-A1-PD10] | > 300 mg/kg | > 300 mg/kg | > 300 mg/kg | > 300 mg/kg | – | – | – | – | ++ (++ = activity or toxicity at 100 mg/kg) | – | – | – | – | – | – | – | Rotorod Toxicity (number of animals exhibiting toxicity/number of animals tested) ([3]; 100 mg/kg (++)): (8/8)^j
CCOC(=O)CC1(CNC(=O)OCCSSCCOC(C)=O)CCCCC1 [I-A1-PD13] | < 300 mg/kg | > 300 mg/kg | < 300 mg/kg | > 300 mg/kg | — (— = no activity or no toxicity at 300 mg/kg) | (1/1) | (1/1) | (1/4) | + (+ = activity or toxicity at 300 mg/kg) | – | – | – | – | – | – | – | –
CS(=O)(=O)NC(=O)OCCSSCCOC(=O)Nc1nnc(-c2cccc(Cl)c2Cl)c(N)n1 [I-A1-PD15] | – | – | – | – | – | – | – | – | – | (1/1) | active in MES | — (— = no activity or no toxicity at 300 mg/kg) | no or mild toxicity | 0/4 | 0/4 | 0/4 | ScMET 4.0 h [2]: — (— = no activity or no toxicity at 300 mg/kg); Toxicity (number of animals exhibiting toxicity/number of animals tested) ([4]; 30 mg/kg, 0.50 h): 0/4
Nc1nc(NC(=O)OCCSSCCOC(=O)NCC2(CC(=O)O)CCCCC2)nnc1-c1cccc(Cl)c1Cl [I-AA-MPD11] | > 300 mg/kg | – | > 300 mg/kg | > 300 mg/kg | — (— = no activity or no toxicity at 300 mg/kg) | – | – | – | – | (1/1) | active in MES | – | no or mild toxicity | 0/4 | 0/4 | 0/4 | –
CCOC(=O)CC1(CNC(=O)OCCSSCCOC(=O)NC(=O)[C@H](CC)N2CCCC2=O)CCCCC1 [I-AA-MPD13] | > 300 mg/kg | > 300 mg/kg | < 300 mg/kg | > 300 mg/kg | — (— = no activity or no toxicity at 300 mg/kg) | – | – | – | + (+ = activity or toxicity at 300 mg/kg) | – | – | – | – | – | – | – | –
CCCC(CCC)C(=O)OCCSSCCOC(=O)Nc1nnc(-c2cccc(Cl)c2Cl)c(N)n1 [I-CA-MPD23] | – | – | – | – | – | – | – | – | – | (1/3) | active in MES | — (— = no activity or no toxicity at 300 mg/kg) | no or mild toxicity | – | – | – | MES 0.5 h ([1]; mice, i.p., 0.5 h): — (— = no activity or no toxicity at 300 mg/kg); MES, at 2 hours after dosing ([1]; mice, i.p.): ++ (++ = activity or toxicity at 100 mg/kg); MES 4.0 h ([1]; mice, i.p., 4.0 h): + (+ = activity or toxicity at 300 mg/kg); ScMET 4.0 h [2]: — (— = no activity or no toxicity at 300 mg/kg); MES (number of animal protected/number of animal tested) ([5]; 4.00 h): 4/4; MES (number of animal protected/number of animal tested) ([5]; 6.00 h): 4/4; MES (number of animal protected/number of animal tested) ([5]; 8.00 h): 4/4; Toxicity (number of animals exhibiting toxicity/number of animals tested) ([4]; 150 mg/kg, 2.00 h): 0/4; Toxicity (number of animals exhibiting toxicity/number of animals tested) ([4]; 150 mg/kg, 4.00 h): 0/4; Toxicity (number of animals exhibiting toxicity/number of animals tested) ([4]; 150 mg/kg, 6.00 h): 0/4; Toxicity (number of animals exhibiting toxicity/number of animals tested) ([4]; 150 mg/kg, 8.00 h): 0/4
Nc1nc(NC(=O)OCCSSCCOC(=O)c2cccnc2)nnc1-c1cccc(Cl)c1Cl [I-CA-MPD24] | – | – | – | – | — (— = no activity or no toxicity at 300 mg/kg) | – | – | – | — (— = no activity or no toxicity at 300 mg/kg) | – | active in MES | — (— = no activity or no toxicity at 300 mg/kg) | non-toxic; also recorded: no or mild toxicity | 0/4 | 0/4 | 0/4 | MES 0.5 h ([1]; mice, i.p., 0.5 h): — (— = no activity or no toxicity at 300 mg/kg); MES, at 2 hours after dosing ([1]; mice, i.p.): ++ (++ = activity or toxicity at 100 mg/kg); MES (number of animal protected/number of animal tested) ([1]; mice, i.p., 2 h after dosing, 100 mg/kg (++)): (3/3)^h; MES 4.0 h ([1]; mice, i.p., 4.0 h): ++ (++ = activity or toxicity at 100 mg/kg); MES, at 6 hours after dosing ([1]; mice, i.p., 6 h (footnotes g, m; printed in 4.0 h column)): ++ (++ = activity or toxicity at 100 mg/kg); MES (number of animal protected/number of animal tested) ([1]; mice, i.p., 6 h after dosing, 100 mg/kg (++)): (3/3)^m; activity in scMET model (in words) ([2]; Test 1, mice i.p.): active; Toxicity (number of animals exhibiting toxicity/number of animals tested) ([4]; 30 mg/kg, 0.50 h): 0/4
Cl.Nc1nc(NC(=O)OCCSSCCNC(=O)c2cccnc2)nnc1-c1cccc(Cl)c1Cl [I-CA-MPD25] | – | – | – | – | — (— = no activity or no toxicity at 300 mg/kg) | – | – | – | — (— = no activity or no toxicity at 300 mg/kg) | (1/1) | active in MES | — (— = no activity or no toxicity at 300 mg/kg) | no or mild toxicity | 0/4 | 0/4 | 0/4 | ScMET 4.0 h [2]: — (— = no activity or no toxicity at 300 mg/kg); Toxicity (number of animals exhibiting toxicity/number of animals tested) ([4]; 30 mg/kg, 0.50 h): 0/4
